Data on 4 compounds can be found in US9486541B2, “Detecting and treating dementia” (Mayo Foundation for Medical Education and Research, priority 2006, dated 2016).

One experiment concerns the target T1, PPARγ (Homo sapiens, UniProt P37231).
T1 sequence (P37231 1-505): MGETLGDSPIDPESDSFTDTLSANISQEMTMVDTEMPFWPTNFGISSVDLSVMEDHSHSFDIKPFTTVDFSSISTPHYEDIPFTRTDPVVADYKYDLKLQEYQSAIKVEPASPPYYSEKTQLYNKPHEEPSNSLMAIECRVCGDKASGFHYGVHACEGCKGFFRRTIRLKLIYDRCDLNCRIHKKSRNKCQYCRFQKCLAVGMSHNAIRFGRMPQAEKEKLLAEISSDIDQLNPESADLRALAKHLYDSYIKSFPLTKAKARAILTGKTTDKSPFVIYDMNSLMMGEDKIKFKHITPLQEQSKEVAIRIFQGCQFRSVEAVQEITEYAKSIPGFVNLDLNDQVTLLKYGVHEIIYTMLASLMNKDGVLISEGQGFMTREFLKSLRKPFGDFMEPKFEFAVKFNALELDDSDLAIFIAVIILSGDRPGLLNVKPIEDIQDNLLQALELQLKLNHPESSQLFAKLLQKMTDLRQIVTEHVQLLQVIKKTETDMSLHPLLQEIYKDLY
Particulars: highly selective agonist, commercial vendors; cited from earlier work.

For the next experiment, the system named is PGRN mRNA. The conditions noted are these: myeloid cells, Ong et al.; cited from earlier work.
Another experiment concerns the target T2, PPARα (Homo sapiens, UniProt Q07869).
T2 sequence (Q07869 1-468): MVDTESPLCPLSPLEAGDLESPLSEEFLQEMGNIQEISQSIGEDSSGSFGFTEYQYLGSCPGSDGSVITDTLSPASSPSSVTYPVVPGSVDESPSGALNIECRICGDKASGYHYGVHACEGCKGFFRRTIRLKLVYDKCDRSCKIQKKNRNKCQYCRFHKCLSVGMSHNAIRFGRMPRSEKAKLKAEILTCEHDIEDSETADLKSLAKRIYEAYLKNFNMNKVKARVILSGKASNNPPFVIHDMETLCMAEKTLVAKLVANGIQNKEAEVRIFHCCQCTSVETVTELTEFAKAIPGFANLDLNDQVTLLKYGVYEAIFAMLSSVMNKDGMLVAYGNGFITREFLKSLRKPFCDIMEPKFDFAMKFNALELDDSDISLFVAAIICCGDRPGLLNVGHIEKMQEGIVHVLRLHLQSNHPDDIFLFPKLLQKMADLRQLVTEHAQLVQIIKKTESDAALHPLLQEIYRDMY
The conditions noted are these: Leesnitzer et al.; cited from earlier work.

In the next experiment the target is T3, PPARδ (Homo sapiens, UniProt Q03181).
T3 sequence (Q03181 1-441): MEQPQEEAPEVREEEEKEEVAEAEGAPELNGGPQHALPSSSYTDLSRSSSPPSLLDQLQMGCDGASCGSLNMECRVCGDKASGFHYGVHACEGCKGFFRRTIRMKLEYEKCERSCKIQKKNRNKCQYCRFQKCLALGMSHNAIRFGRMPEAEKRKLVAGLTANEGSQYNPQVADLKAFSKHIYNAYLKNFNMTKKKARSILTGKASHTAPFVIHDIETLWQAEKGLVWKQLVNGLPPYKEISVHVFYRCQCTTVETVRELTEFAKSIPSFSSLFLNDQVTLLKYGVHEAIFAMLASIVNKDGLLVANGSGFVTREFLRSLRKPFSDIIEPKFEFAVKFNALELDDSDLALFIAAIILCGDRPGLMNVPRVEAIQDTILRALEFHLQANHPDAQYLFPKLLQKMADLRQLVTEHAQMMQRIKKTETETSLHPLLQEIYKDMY
Particulars: Leesnitzer et al.; cited from earlier work.

In experiment [1] the test system is PGRN polypeptide. The experiment is described as follows: PGRN polypeptide levels in cell lysates and culture supernatants of treated HeLa cells, Western blotting. The class given is cell-based, human. The conditions noted are these: 1.25 to 20 micromolar ibuprofen, 24 hours, vs DMSO. The method, then: Cell cultures were maintained in standard cell culture media supplemented with 5% fetal bovine serum and 100 U/mL penicillin/streptomycin (Life Technologies, Karlsruhe, Germany). Cell cultures consisted of Chinese hamster ovary (CHO) cells; human HeLa cells (HeLa); BE(2)-M17, human neuroblastoma (M17); N2A, mouse neuroblastoma; and human lymphoblasts.
The following NSAIDs were dissolved in the vehicle DMSO: ibuprofen (Biomol, Plymouth Meeting, Pa.), indomethacin (Biomol), diclofenac (Cayman Chemical, Ann Arbor, Mich.), naproxen (Cayman Chemical), and aspirin (ICN Biomedicals, Irvine, Calif.). Cells were cultured in serum-containing media and treated for 24 hours in serum-free media with a specific NSAID. NSAID toxicity was examined using a standard MTT-assay (3-(4,5-Dimethyl-2-thiazolylyl)-2,5-diphenyl-2H-tetrazolium Bromide). For cell toxicity studies, cells were treated with NSAIDS at concentrations up to 100 micromolar.
Antibodies that were used included a monoclonal human progranulin antibody (Zymed, South San Francisco, Calif.) directed against full length progranulin polypeptide, a mouse progranulin antibody (R&D Systems, Minneapolis, Minn.) directed against full length progranulin polypeptide, and an anti-GAPDH antibody (Sigma-Aldrich).
HeLa cell cultures (N=4 for all studies) were treated with various concentrations of NSAIDs, including ibuprofen, naproxen, indomethacin, meclofenamic acid, and acetylsalicylic acid for 24 hours in serum free media. Levels of PGRN polypeptide in culture supernatants and in cell lysates were analyzed using Western blotting.
Background: Immunoblotting shows a protein as a band on a membrane.

The subject of experiment [2] is PGRN polypeptide. As to the kind of experiment: PGRN polypeptide expression in HeLa cells by immunohistochemistry. It is filed as cell-based, human. The conditions noted are these: ibuprofen 2.5 μM for 24 hours, vs untreated. The method, then: Treated and untreated HeLa cells were analyzed for PGRN polypeptide expression using immunohistochemistry. […] Levels of PGRN polypeptide in cell culture supernatants and cell lysates of HeLa cells treated with various concentrations of ibuprofen were compared to corresponding PGRN polypeptide levels in HeLa cells treated with DMSO (FIG. 26).

In experiment [3] the test system is PGRN polypeptide. As to the kind of experiment: PGRN polypeptide levels in cell lysates and culture supernatants of treated M17 cells, Western blotting. The class given is cell-based, human. The conditions noted are these: M17 cells, ibuprofen 1 to 5 μM. Here is the method: Cell cultures were maintained in standard cell culture media supplemented with 5% fetal bovine serum and 100 U/mL penicillin/streptomycin (Life Technologies, Karlsruhe, Germany). Cell cultures consisted of Chinese hamster ovary (CHO) cells; human HeLa cells (HeLa); BE(2)-M17, human neuroblastoma (M17); […] The following PPAR activators were dissolved in DMSO: ciglitazone (Calbiochem, San Diego, Calif.), fenofibrate (Sigma-Aldrich, Saint Louis, Mo.), clofibrate (Calbiochem), and L165041 (Calbiochem). Cells were cultured in serum-containing media and treated for 24 hours in serum-free media with a specific PPAR agonist. Curcumin (Sigma-Aldrich) and resveratrol (Sigma-Aldrich) were dissolved in DMSO. Cells were cultured in serum-containing media and treated for 24 hours in serum-free media with curcumin or resveratrol. Antibodies that were used included a monoclonal human progranulin antibody (Zymed, South San Francisco, Calif.) directed against full length progranulin polypeptide, a mouse progranulin antibody (R&D Systems, Minneapolis, Minn.) directed against full length progranulin polypeptide, and an anti-GAPDH antibody (Sigma-Aldrich). Cell cultures were treated with increasing concentrations of the PPARα activator clofibrate or with DMSO. Levels of PGRN polypeptide in culture supernatants and in cell lysates were analyzed using Western blotting. The levels of intracellular and secreted forms of PGRN polypeptide were compared in clofibrate treated M17 cell cultures and DMSO treated M17 cell cultures (FIG. 20).

The test system of experiment [4] is PGRN polypeptide. As to the kind of experiment: PGRN polypeptide levels in treated N2A mouse neuroblastoma cells. It is filed as cell-based. The conditions noted are these: N2A cells, ibuprofen 1 to 5 μM. The method, then: Cell cultures were maintained in standard cell culture media supplemented with 5% fetal bovine serum and 100 U/mL penicillin/streptomycin (Life Technologies, Karlsruhe, Germany). Cell cultures consisted of Chinese hamster ovary (CHO) cells; human HeLa cells (HeLa); BE(2)-M17, human neuroblastoma (M17); […] The following NSAIDs were dissolved in the vehicle DMSO: ibuprofen (Biomol, Plymouth Meeting, Pa.), indomethacin (Biomol), diclofenac (Cayman Chemical, Ann Arbor, Mich.), naproxen (Cayman Chemical), and aspirin (ICN Biomedicals, Irvine, Calif.). Cells were cultured in serum-containing media and treated for 24 hours in serum-free media with a specific NSAID. […] For cell toxicity studies, cells were treated with NSAIDS at concentrations up to 100 micromolar. The following PPAR activators were dissolved in DMSO: ciglitazone (Calbiochem, San Diego, Calif.), fenofibrate (Sigma-Aldrich, Saint Louis, Mo.), clofibrate (Calbiochem), and L165041 (Calbiochem). Cells were cultured in serum-containing media and treated for 24 hours in serum-free media with a specific PPAR agonist. […]

The test system of another experiment is GAPDH polypeptide. The experiment is described as follows: GAPDH polypeptide expression in treated HeLa cells, Western blot. It is filed as cell-based, human. The conditions noted are these: ibuprofen treatment.

For the compound GW1929, the “PPARγ agonist activity range” value at PPARγ was “low nM range”.

Turning to `CC1=C(/C=C/C(C)=C/C=C/C(C)=C/C(=O)O)C(C)(C)CCC1` [all trans-retinoic acid], the “PGRN mRNA level” value with PGRN mRNA is recorded as “upregulation of PGRN mRNA”.

As to `O=C(Nc1ccccc1)c1cc([N+](=O)[O-])ccc1Cl` [GW9662, 2-Chloro-5-nitro-N-phenylbenzamide], on PPARα, the “block of PPARα receptors” value is “low nM range”. The “block of PPARδ receptors” value at PPARδ is given as “low micromolar range”.

`CC(C)Cc1ccc(C(C)C(=O)O)cc1` (stereo not drawn) [ibuprofen]: in the experiment with PGRN polypeptide [1], the “increase in the level of intracellular PGRN polypeptide” value is on record as “approximately 150%”. The “PGRN polypeptide expression by immunohistochemistry” value in the experiment on PGRN polypeptide [2] is on record as “increased PGRN polypeptide expression in the Golgi”. Moreover, the “increase in PGRN polypeptide expression” value in the experiment on PGRN polypeptide [3] and in the experiment on PGRN polypeptide [4] was “up to 600%” throughout. For the same compound, in the experiment on GAPDH polypeptide, the “effect on GAPDH polypeptide expression” value is recorded as “No significant effect”.
